Assay results from PMC10835732, “Pharmacokinetics of Hydroxytyrosol and Its Sulfate and Glucuronide Metabolites after the Oral Administration of Table Olives to Sprague-Dawley Rats” (Journal of Agricultural and Food Chemistry, 2024).
Where “and” joins values, the source holds several entries; their conditions need not be identical. Identical values can stand only once. Like-named read-outs stand apart in the source and are kept apart here. Marks after values point to notes of the source that are not given here.

How the values were obtained:
[1] = Plasma pharmacokinetics (noncompartmental analysis) after single oral administration of Arbequina table olives; assay type: in vivo, Sprague-Dawley rats; settings: for Cmax/D: D = dose of hydroxytyrosol in nmol; for AUC0–∞/D / AUCt/D: D in nmol; for AUCt: time zero up to 8 h; for Tmax: median (min, max); for k el: read-out: λz (apparent elimination rate constant) (converted); for Cmax: read-out: Peak plasma concentration (Cmax), text value with ± spread
Procedure: The experiments were performed using Sprague–Dawley rats (n = 13) randomly divided into two groups, the 30 olives group (n = 6) that received the dose of 3.85 g/kg and the 60 olives group (n = 7), which was given the dose of 7.70 g/kg. The freshly prepared homogeneous suspensions were given to overnight fasted rats by oral gavage (18-gauge × 76 mm, ref FFSS-186-76, Instech Laboratories, Inc., Plymouth Meeting, PA). The volume of administration was 10 mL/kg. After the single administration of Arbequina table olives, blood was obtained at 30, 60, 90, 120, 240, 360, and 480 min from each animal. Samples were withdrawn from the lateral saphenous vein and placed into Microvette CB 300 K2 EDTA-K2 (Sarstedt, Granollers, Spain) coated tubes.[31] At each time point, 0.40 mL of blood was collected, meaning that a maximum of 2.4 mL was obtained from each animal. […] Blood corresponding to 480 min was taken by a cardiac puncture with the animal under terminal anesthesia. Plasma was immediately obtained by centrifugation at 1500g at 4 °C for 15 min (Centrifuge Megafuge 1.0R, Heraeus, Boadilla, Spain) and kept at −20 °C until analysis.
Hydroxytyrosol and its metabolites in plasma were determined by liquid–liquid extraction followed by LC-MS/MS analysis as previously described.[11] Briefly, 200 μL of plasma was mixed with 10 μL of freshly prepared 10% ascorbic acid followed by 10 μL of 0.5% acetic acid and 10 μL of 2-(3-hydroxyphenyl) ethanol (10 μM, I.S.). Then, 2 mL of ethyl acetate was added to the samples that were vigorously mixed in a vortex (5 min), placed into an ultrasonic bath (10 min), and centrifuged at 1500g at 4 °C (15 min) (Centrifuge Megafuge 1.0R). A second extraction of the pellet with 2 mL of ethyl acetate was carried out. Subsequently, the two pooled supernatants were evaporated to dryness, reconstituted with 100 μL of 80% methanol, placed into amber vials, and immediately analyzed by LC-MS/MS.
The plasmatic concentrations were calculated by the interpolation of the peak area ratio of hydroxytyrosol versus I.S. on a calibration curve. Calibration standards were constructed with blank plasma obtained by cardiac puncture from overnight fasted rats that had never received either table olives or hydroxytyrosol. […] Results were expressed in nmol per liter of plasma (nmol/L). The method was validated following the EMA guidelines[33] at six different concentrations ranging from 0 to 250 nmol/L analyzed on three different days.
Individual PK of hydroxytyrosol and its metabolites were estimated from the plasma concentrations versus time profiles of each animal, through a noncompartmental analysis (NCA) with Phoenix-64 (Build 8.3.4.295, Certara, Princeton, N.J., USA). All concentrations of each pharmacokinetic profile were considered for NCA because the values obtained were above the LOQ. Peak plasma concentration (Cmax) and time to peak plasma concentration (Tmax) were determined by visual inspection of the pharmacokinetic profiles. The apparent elimination rate constant (λz) was estimated from the terminal slope of the semilogarithmic concentration–time curve. The apparent elimination half-life (t1/2λz) was calculated as t1/2z = 0.693/λz. The area under the plasma concentration–time curve from time zero to the last experimental time (AUCt) with analyte concentrations above the LOQ, was calculated by the linear-log trapezoidal rule. The area from time zero to infinity (AUC0–∞) was calculated by adding to the AUCt value the extrapolated area calculated as the ratio between the predicted concentration (Ct) at the last sampling time with concentrations above the LOQ and λz. The mean residence time (MRT0–∞) was given by the ratio of the area under the first-moment curve (AUMC0–∞) to the area under the zero-moment curve (AUC0–∞). The ratio indicating the relative exposure of each metabolite with respect to hydroxytyrosol (AUC0–∞m/AUC0–∞) was also calculated for all of the metabolites. […]

[2] = ref Serra et al. 23, cited from earlier work
[3] = healthy volunteers, ref Goldberg et al. 26, cited from earlier work; for AUC: 10 Kalamata olives
[4] = 30 olives group (hydroxytyrosol 2.95 mg/kg oral), geometric mean (95% CI)
[5] = 60 olives group (hydroxytyrosol 5.89 mg/kg oral), geometric mean (95% CI)

Q: For `OCCc1ccc(O)c(O)c1` [hydroxytyrosol], which “AUC0–∞” value ([1]; 30 olives group (3.85 g olives/kg, hydroxytyrosol 2.95 mg/kg oral), geometric mean (95% CI)) is on record?
A: The value was 4293 min·nmol/L and 4293 (3815, 4830)^a min·nmol/L.

Q: And the Cmax/D [1, 4]?
A: Its Cmax/D is 0.0044 (0.0026, 0.0077)^a.

Q: What about the “AUC0–∞/D” value [1, 4] of the same compound?
A: The value was 0.8149 (0.7420, 0.8949)^a.

Q: What about the AUCt/D [1, 4] of the same compound?
A: Its AUCt/D is 0.6383 (0.5153, 0.7907)^a.

Q: And the “Vss/F (apparent steady-state volume of distribution)” value [1, 4]?
A: Its value is 1139 (671.4, 1932)^a L/kg.

Q: And the AUCt [1, 4]?
A: The AUCt was 3363 (2642, 4280)a min·nmol/L.

Q: And the “AUC0–∞” value ([1]; 60 olives group (7.70 g olives/kg, hydroxytyrosol 5.89 mg/kg oral), geometric mean (95% CI))?
A: Its value is 8919 min·nmol/L and 8919 (6920, 11495)^b min·nmol/L.

Q: What about the Cmax/D [1, 5] of the same compound?
A: The Cmax/D was 0.0039 (0.0028, 0.0053)^a.

Q: And the “AUC0–∞/D” value [1, 5]?
A: The value was 0.7993 (0.6170, 1.035)^a.

Q: What about the AUCt/D [1, 5] of the same compound?
A: Its AUCt/D is 0.7091 (0.5407, 0.9300)^a.

Q: And the “Vss/F (apparent steady-state volume of distribution)” value [1, 5]?
A: The value was 882.8 (674.2, 1161)^a L/kg.

Q: And the Tmax ([1]; 60 olives group (hydroxytyrosol 5.89 mg/kg oral))?
A: Its Tmax is 41 (33, 68)^a min.

Q: What about the AUCt [1, 5] of the same compound?
A: The AUCt was 7912 (6031, 10381)^b min·nmol/L.

Q: And the half-life ([1]; Sprague-Dawley, rat, plasma, oral, both doses, assuming first-order absorption, read-out: absorption half-life inferred from Cmax/AUC)?
A: Its half-life is 2.1 to 2.4 h.

Q: What about the CL/F ([1]; Sprague-Dawley, rat, plasma, oral, both doses, read-out: Cl/F) of the same compound?
A: Its CL/F is roughly 258 L/h/kg.

Q: What about the Vd/F ([1]; Sprague-Dawley, rat, plasma, oral, both doses, read-out: Vss/F or Vdarea/F) of the same compound?
A: Its Vd/F is roughly 1000 L/kg.

Q: And the Vd/F ([1]; Sprague-Dawley, rat, plasma, po, 2.95 mg/kg, 30 olives group (hydroxytyrosol 2.95 mg/kg oral), geometric mean (95% CI), read-out: Vdarea/F (apparent volume of distribution, terminal phase))?
A: The Vd/F was 1070 L/kg.

Q: What about the Vd/F ([1]; Sprague-Dawley, rat, plasma, po, 2.95 mg/kg, 30 olives group (hydroxytyrosol 2.95 mg/kg oral), geometric mean (95% CI), read-out: Vss/F (apparent steady-state volume of distribution)) of the same compound?
A: Its Vd/F is 1140 L/kg.

Q: What about the half-life ([1]; Sprague-Dawley, rat, plasma, po, 2.95 mg/kg, 30 olives group (hydroxytyrosol 2.95 mg/kg oral), geometric mean (95% CI), read-out: t1/2λz (apparent elimination half-life)) of the same compound?
A: Its half-life is 2.77 h.

Q: What about the Tmax ([1]; Sprague-Dawley, rat, plasma, po, 2.95 mg/kg, 30 olives group (hydroxytyrosol 2.95 mg/kg oral), read-out: Tmax (converted)) of the same compound?
A: Its Tmax is roughly 1 h.

Q: And the Vd/F ([1]; Sprague-Dawley, rat, plasma, po, 5.89 mg/kg, 60 olives group (hydroxytyrosol 5.89 mg/kg oral), geometric mean (95% CI), read-out: Vdarea/F (apparent volume of distribution, terminal phase))?
A: Its Vd/F is 678 L/kg.

Q: And the Vd/F ([1]; Sprague-Dawley, rat, plasma, po, 5.89 mg/kg, 60 olives group (hydroxytyrosol 5.89 mg/kg oral), geometric mean (95% CI), read-out: Vss/F (apparent steady-state volume of distribution))?
A: The Vd/F was 883 L/kg.

Q: And the half-life ([1]; Sprague-Dawley, rat, plasma, po, 5.89 mg/kg, 60 olives group (hydroxytyrosol 5.89 mg/kg oral), geometric mean (95% CI), read-out: t1/2λz (apparent elimination half-life))?
A: Its half-life is 1.83 h.

Q: And the Tmax ([1]; Sprague-Dawley, rat, plasma, po, 5.89 mg/kg, 60 olives group (hydroxytyrosol 5.89 mg/kg oral), read-out: Tmax (converted))?
A: The Tmax was roughly 0.667 h.

Q: And the half-life ([1]; Sprague-Dawley, rat, plasma, po, both doses (30 and 60 olives groups), oral table olives, read-out: half-life (t1/2λz) (converted))?
A: The half-life was roughly 2.5 h.

Q: What about the CL/F ([1]; Sprague-Dawley, rat, plasma, 30 olives group (hydroxytyrosol 2.95 mg/kg oral), geometric mean (95% CI), read-out: Cl/F (apparent clearance)) of the same compound?
A: The CL/F was 268 L/h/kg.

Q: What about the MRT inf ([1]; Sprague-Dawley, rat, plasma, 30 olives group (hydroxytyrosol 2.95 mg/kg oral), geometric mean (95% CI), read-out: MRT0–∞ (converted)) of the same compound?
A: Its MRT inf is 4.26 h.

Q: What about the k el ([1]; Sprague-Dawley, rat, plasma, 30 olives group (hydroxytyrosol 2.95 mg/kg oral), geometric mean (95% CI)) of the same compound?
A: Its k el is 7e-05 s⁻¹.

Q: And the Cmax ([1]; Sprague-Dawley, rat, plasma, 30 olives group (hydroxytyrosol 2.95 mg/kg oral))?
A: Its Cmax is 23.4 ± 1.68 nM.

Q: And the CL/F ([1]; Sprague-Dawley, rat, plasma, 60 olives group (hydroxytyrosol 5.89 mg/kg oral), geometric mean (95% CI), read-out: Cl/F (apparent clearance))?
A: Its CL/F is 257 L/h/kg.

Q: What about the MRT inf ([1]; Sprague-Dawley, rat, plasma, 60 olives group (hydroxytyrosol 5.89 mg/kg oral), geometric mean (95% CI), read-out: MRT0–∞ (converted)) of the same compound?
A: Its MRT inf is 3.44 h.

Q: What about the k el ([1]; Sprague-Dawley, rat, plasma, 60 olives group (hydroxytyrosol 5.89 mg/kg oral), geometric mean (95% CI)) of the same compound?
A: The k el was 0.000105 s⁻¹.

Q: And the Cmax ([1]; Sprague-Dawley, rat, plasma, 60 olives group (hydroxytyrosol 5.89 mg/kg oral))?
A: Its Cmax is 43 ± 1.39 nM.

Q: And the MRT inf ([1]; Sprague-Dawley, rat, plasma, both doses (30 and 60 olives groups), oral table olives, read-out: mean residence time (MRT0–∞))?
A: Its MRT inf is roughly 4 h.

Q: What about the “PK behaviour between doses (dose linearity)” value ([1]; between doses of 2.95 and 5.85 mg hydroxytyrosol/kg, noncompartmental analysis) of the same compound?
A: Its value is “linear PK”.

Q: And the “percentage of the AUC of each compound divided by the AUC of the sum of all of them” value ([1]; both doses (similar ratios between doses), plasma)?
A: Its value is 11%.

Q: And the “share in rat plasma” value ([2]; after phenolic extract from olive cake containing 10.35 mg/kg of hydroxytyrosol)?
A: The value was 6%.

Q: What about the Tmax ([2]; sampling times limited to 1, 2 and 4 h) of the same compound?
A: Its Tmax is 2 h.

Q: And the Cmax ([3]; 10 Kalamata olives with 389.87 mg hydroxytyrosol/kg, parent compound)?
A: The Cmax was 0.64 nM.

Q: And the AUC ([3]; converted unit)?
A: Its AUC is 0.65 nM·h.

Q: What about the AUC [3] of the same compound?
A: The AUC was 0.65 nM·h.
